Measurements reported in US20150105252A1, “SUBSTITUTED PYRAZOLES AS HERBICIDES” (E I DU PONT DE NEMOURS AND COMPANY, priority 2013, published 2015).

What was measured:
Experiment in all cases: Test F preemergence
[1] = test system: dayflower, VA; format: in vivo, Commelina virginica
Description: (§1) Seeds of plant species selected from corn (Zea mays), soybean (Glycine max), velvetleaf (Abutilon theophrasti), lambsquarters (Chenopodium album), wild poinsettia (Euphorbia heterophylla), pigweed, palmer (palmer pigweed, Amaranthus palmeri), common waterhemp (Amaranthus rudis), surinam grass (Brachiaria decumbens), large crabgrass (Digitaria sanguinalis), crabgrass, Brazil (Brazilian crabgrass, Digitaria horizontalis), fall panicum (Panicum dichotomiflorum), giant foxtail (Setaria faberii), green foxtail (Setaria viridis), goosegrass (Eleusine indica), johnsongrass (Sorghum halepense), common ragweed (Ambrosia elation), barnyardgrass (Echinochloa crus-galli), southern sandbur (Cenchrus echinatus), arrowleaf sida (Sida rhombifolia), Italian ryegrass (Lolium multiflorum), dayflower, VA (Virginia (VA) dayflower, Commelina virginica), field bindweed (Convolvulus arvensis), cocklebur (common cocklebur, Xanthium strumarium), morningglory (Ipomoea coccinea), nightshade (eastern black nightshade, Solanum ptycanthum), kochia (Kochia scoparia), yellow nutsedge (Cyperus esculentus), and hairy beggarticks (Bidens pilosa), were planted into a silt loam soil and treated preemergence with test chemicals formulated in a non-phytotoxic solvent mixture which included a surfactant.
(§2) At the same time, plants from these crop and weed species and also horseweed (Canada horseweed, Conyza canadensis), smartweed (ladysthumb smartweed, Polygonum persicaria), waterhemp_RES1, (ALS & Triazine resistant common waterhemp, Amaranthus rudis), and waterhemp_RES2, (ALS & HPPD resistant common waterhemp, Amaranthus rudis) were treated with postemergence applications of test chemicals formulated in the same manner. Plants ranged in height from 2 to 18 cm for postemergence treatments (1- to 4-leaf stage). Treated plants and controls were maintained in a greenhouse for 14 to 21 days, after which time all species were compared to controls and visually evaluated. Plant response ratings, summarized in Table F, are based on a scale of 0 to 100 where 0 is no effect and 100 is complete control. A dash (-) response means no test result.

[2] = test system: lambsquarters; format: in vivo, Chenopodium album
Description: as §1, §2

[3] = test system: giant foxtail; format: in vivo, Setaria faberii
Description: as §1, §2

[4] = test system: kochia; format: in vivo, Kochia scoparia
Description: as §1, §2

[5] = test system: hairy beggarticks; format: in vivo, Bidens pilosa
Description: as §1, §2

[6] = test system: johnsongrass; format: in vivo, Sorghum halepense
Description: as §1, §2

[7] = test system: morningglory; format: in vivo, Ipomoea coccinea
Description: as §1, §2

[8] = test system: soybean; format: in vivo, Glycine max
Description: as §1, §2

[9] = Preemergence, 31 g ai/ha, scale 0 to 100
[10] = Preemergence, 62 g ai/ha, scale 0 to 100
[11] = Preemergence, 125 g ai/ha, scale 0 to 100
[12] = preemergence, 8 g ai/ha, scale 0 to 100, 100 is complete control
[13] = preemergence, 16 g ai/ha, scale 0 to 100, 100 is complete control
[14] = Preemergence, 16 g ai/ha, scale 0 to 100

For `CCOc1cc(C(=O)NCC(F)(F)F)nn1Cc1ccnc(C(F)(F)F)c1` [Compound 104], the “Plant response rating, Dayflower, VA” value [1, 9] was 50, the “Plant response rating, Dayflower, VA” value [1, 10] was 98 and the “Plant response rating, Dayflower, VA” value [1, 11] was 100. For the same molecule, the “Plant response rating, Dayflower, VA” value [1, 12] was 0, the “Plant response rating, Dayflower, VA” value [1, 13] was 0 and the “Plant response rating, Lambsquarters” value [2, 9] was 100. For the same molecule, the “Plant response rating, Lambsquarters” value [2, 10] was 100, the “Plant response rating, Lambsquarters” value [2, 11] was 100 and the “Plant response rating, Lambsquarters” value [2, 12] was 35. The “Plant response rating, Lambsquarters” value [2, 13] was 60, the “Plant response rating, Giant Foxtail” value [3, 9] was 100 and the “Plant response rating, Giant Foxtail” value [3, 10] was 100. For the same molecule, the “Plant response rating, Giant Foxtail” value [3, 11] was 100, the “Plant response rating, Giant Foxtail” value [3, 12] was 25 and the “Plant response rating, Giant Foxtail” value [3, 13] was 30. The “Plant response rating, Kochia” value [4, 9] was 25, the “Plant response rating, Kochia” value [4, 10] was 100 and the “Plant response rating, Kochia” value [4, 11] was 100. The “Plant response rating, Kochia” value [4, 12] was 0, the “Plant response rating, Hairy Beggarticks” value [5, 9] was 0 and the “Plant response rating, Hairy Beggarticks” value [5, 10] was 0. The “Plant response rating, Hairy Beggarticks” value [5, 11] was 10, the “Plant response rating, Hairy Beggarticks” value [5, 12] was 0 and the “Plant response rating, Hairy Beggarticks” value [5, 13] was 0. The “Plant response rating, Johnsongrass” value [6, 9] was 60, the “Plant response rating, Johnsongrass” value [6, 10] was 75 and the “Plant response rating, Johnsongrass” value [6, 11] was 100. The “Plant response rating, Johnsongrass” value [6, 12] was 15, the “Plant response rating, Johnsongrass” value [6, 13] was 35 and the “Plant response rating, Morningglory” value [7, 9] was 70. For the same molecule, the “Plant response rating, Morningglory” value [7, 10] was 80, the “Plant response rating, Morningglory” value [7, 11] was 100 and the “Plant response rating, Morningglory” value [7, 12] was 0. The “Plant response rating, Morningglory” value [7, 13] was 0, the “Plant response rating, Soybean” value [8, 9] was 25 and the “Plant response rating, Soybean” value [8, 10] was 70. For the same molecule, the “Plant response rating, Soybean” value [8, 11] was 90, the “Plant response rating, Soybean” value [8, 12] was 0 and the “Plant response rating, Soybean” value [8, 13] was 0.
In the case of `CCNC(=O)c1cc(CCCl)n(Cc2ccnc(C(F)(F)F)c2)n1` [Compound 179], the “Plant response rating, Dayflower, VA” value [1, 9] is reported as 0, the “Plant response rating, Dayflower, VA” value [1, 10] is reported as 10 and the “Plant response rating, Dayflower, VA” value [1, 11] is reported as 40. The “Plant response rating, Dayflower, VA” value [1, 12] was 0, the “Plant response rating, Lambsquarters” value [2, 10] was 30 and the “Plant response rating, Lambsquarters” value [2, 11] was 100. The “Plant response rating, Giant Foxtail” value [3, 9] was 25, the “Plant response rating, Giant Foxtail” value [3, 10] was 40 and the “Plant response rating, Giant Foxtail” value [3, 11] was 98. The “Plant response rating, Giant Foxtail” value [3, 12] was 0, the “Plant response rating, Kochia” value [4, 9] was 30 and the “Plant response rating, Kochia” value [4, 10] was 35. For the same molecule, the “Plant response rating, Kochia” value [4, 11] was 90, the “Plant response rating, Kochia” value [4, 12] was 0 and the “Plant response rating, Hairy Beggarticks” value [5, 9] was 40. The “Plant response rating, Hairy Beggarticks” value [5, 10] was 40, the “Plant response rating, Hairy Beggarticks” value [5, 11] was 40 and the “Plant response rating, Hairy Beggarticks” value [5, 12] was 35. The “Plant response rating, Johnsongrass” value [6, 9] was 20, the “Plant response rating, Johnsongrass” value [6, 10] was 20 and the “Plant response rating, Johnsongrass” value [6, 11] was 70. For the same molecule, the “Plant response rating, Johnsongrass” value [6, 12] was 0, the “Plant response rating, Morningglory” value [7, 9] was 40 and the “Plant response rating, Morningglory” value [7, 10] was 60. For the same molecule, the “Plant response rating, Morningglory” value [7, 11] was 70, the “Plant response rating, Morningglory” value [7, 12] was 0 and the “Plant response rating, Soybean” value [8, 9] was 35. For the same molecule, the “Plant response rating, Soybean” value [8, 10] was 65, the “Plant response rating, Soybean” value [8, 11] was 70 and the “Plant response rating, Soybean” value [8, 12] was 0.
`CCNC(=O)c1cc(CC)n(Cc2ccnc(C(F)(F)F)c2)n1` [Compound 196] was tested, and the “Plant response rating, Dayflower, VA” value [1, 10] was 35, the “Plant response rating, Dayflower, VA” value [1, 11] was 75 and the “Plant response rating, Dayflower, VA” value [1, 12] was 0. The “Plant response rating, Dayflower, VA” value [1, 13] was 0, the “Plant response rating, Lambsquarters” value [2, 10] was 98 and the “Plant response rating, Lambsquarters” value [2, 11] was 100. The “Plant response rating, Lambsquarters” value [2, 12] was 0, the “Plant response rating, Lambsquarters” value [2, 13] was 5 and the “Plant response rating, Giant Foxtail” value [3, 10] was 70. The “Plant response rating, Giant Foxtail” value [3, 11] was 100, the “Plant response rating, Giant Foxtail” value [3, 12] was 0 and the “Plant response rating, Giant Foxtail” value [3, 13] was 0. The “Plant response rating, Kochia” value [4, 10] was 85, the “Plant response rating, Kochia” value [4, 11] was 100 and the “Plant response rating, Kochia” value [4, 12] was 15. The “Plant response rating, Kochia” value [4, 13] was 40, the “Plant response rating, Hairy Beggarticks” value [5, 10] was 15 and the “Plant response rating, Hairy Beggarticks” value [5, 11] was 35. For the same molecule, the “Plant response rating, Hairy Beggarticks” value [5, 12] was 0, the “Plant response rating, Hairy Beggarticks” value [5, 13] was 0 and the “Plant response rating, Johnsongrass” value [6, 10] was 35. For the same molecule, the “Plant response rating, Johnsongrass” value [6, 11] was 80, the “Plant response rating, Johnsongrass” value [6, 12] was 0 and the “Plant response rating, Johnsongrass” value [6, 13] was 0. For the same molecule, the “Plant response rating, Morningglory” value [7, 14] was 35, the “Plant response rating, Morningglory” value [7, 10] was 70 and the “Plant response rating, Morningglory” value [7, 11] was 80. For the same molecule, the “Plant response rating, Morningglory” value [7, 12] was 5, the “Plant response rating, Morningglory” value [7, 13] was 10 and the “Plant response rating, Soybean” value [8, 14] was 20. For the same molecule, the “Plant response rating, Soybean” value [8, 10] was 50, the “Plant response rating, Soybean” value [8, 11] was 50 and the “Plant response rating, Soybean” value [8, 12] was 0. The “Plant response rating, Soybean” value [8, 13] was 0.
For `Cc1cc(C(=O)NC(C)C)nn1Cc1ccnc(C(F)(F)F)c1` [Compound 197], the “Plant response rating, Dayflower, VA” value [1, 10] was 0, the “Plant response rating, Dayflower, VA” value [1, 11] was 40 and the “Plant response rating, Dayflower, VA” value [1, 12] was 0. The “Plant response rating, Dayflower, VA” value [1, 13] was 0, the “Plant response rating, Lambsquarters” value [2, 10] was 35 and the “Plant response rating, Lambsquarters” value [2, 11] was 80. The “Plant response rating, Lambsquarters” value [2, 12] was 0, the “Plant response rating, Lambsquarters” value [2, 13] was 35 and the “Plant response rating, Giant Foxtail” value [3, 10] was 20. The “Plant response rating, Giant Foxtail” value [3, 11] was 100, the “Plant response rating, Giant Foxtail” value [3, 12] was 0 and the “Plant response rating, Giant Foxtail” value [3, 13] was 0. The “Plant response rating, Kochia” value [4, 10] was 75, the “Plant response rating, Kochia” value [4, 11] was 98 and the “Plant response rating, Kochia” value [4, 12] was 0. For the same molecule, the “Plant response rating, Kochia” value [4, 13] was 0, the “Plant response rating, Hairy Beggarticks” value [5, 10] was 25 and the “Plant response rating, Hairy Beggarticks” value [5, 11] was 20. The “Plant response rating, Hairy Beggarticks” value [5, 12] was 0, the “Plant response rating, Hairy Beggarticks” value [5, 13] was 0 and the “Plant response rating, Johnsongrass” value [6, 10] was 0. The “Plant response rating, Johnsongrass” value [6, 11] was 20, the “Plant response rating, Johnsongrass” value [6, 12] was 0 and the “Plant response rating, Johnsongrass” value [6, 13] was 0. For the same molecule, the “Plant response rating, Morningglory” value [7, 14] was 20, the “Plant response rating, Morningglory” value [7, 10] was 30 and the “Plant response rating, Morningglory” value [7, 11] was 60. For the same molecule, the “Plant response rating, Morningglory” value [7, 12] was 0, the “Plant response rating, Morningglory” value [7, 13] was 10 and the “Plant response rating, Soybean” value [8, 14] was 10. The “Plant response rating, Soybean” value [8, 10] was 20, the “Plant response rating, Soybean” value [8, 11] was 65 and the “Plant response rating, Soybean” value [8, 12] was 0. The “Plant response rating, Soybean” value [8, 13] was 5.
